Tests used:
PIP4K2C = biological target: T1, PIP4K2C (Homo sapiens, UniProt Q8TBX8); assay: KiNativ ATP-probe chemoproteomics in A375 cells treated with WX8; in vitro kinase binding assay (Fig. 2F); type: biochemical
T1 sequence (Q8TBX8 2-421): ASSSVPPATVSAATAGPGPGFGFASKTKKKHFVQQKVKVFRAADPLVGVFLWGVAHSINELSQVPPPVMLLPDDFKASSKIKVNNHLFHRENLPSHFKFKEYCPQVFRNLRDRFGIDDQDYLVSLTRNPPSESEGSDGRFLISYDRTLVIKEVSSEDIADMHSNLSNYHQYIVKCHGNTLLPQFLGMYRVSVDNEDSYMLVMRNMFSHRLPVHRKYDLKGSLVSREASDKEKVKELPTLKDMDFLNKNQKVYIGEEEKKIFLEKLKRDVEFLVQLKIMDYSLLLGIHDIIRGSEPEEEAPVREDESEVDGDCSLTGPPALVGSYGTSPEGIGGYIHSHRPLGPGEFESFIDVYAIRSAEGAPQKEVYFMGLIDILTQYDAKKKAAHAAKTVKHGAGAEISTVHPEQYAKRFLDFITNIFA

PIKFYVE = PIKFYVE (Homo sapiens, UniProt Q9Y2I7); assay: as above; type: cell-based; conditions: A-375
CHUK/IKKA = biological target: T2, CHUK/IKKA (Homo sapiens, UniProt O15111); assay: KiNativ ATP-probe chemoproteomics in A375 cells treated with WX8; type: cell-based; conditions: A-375
T2 sequence (O15111 1-745): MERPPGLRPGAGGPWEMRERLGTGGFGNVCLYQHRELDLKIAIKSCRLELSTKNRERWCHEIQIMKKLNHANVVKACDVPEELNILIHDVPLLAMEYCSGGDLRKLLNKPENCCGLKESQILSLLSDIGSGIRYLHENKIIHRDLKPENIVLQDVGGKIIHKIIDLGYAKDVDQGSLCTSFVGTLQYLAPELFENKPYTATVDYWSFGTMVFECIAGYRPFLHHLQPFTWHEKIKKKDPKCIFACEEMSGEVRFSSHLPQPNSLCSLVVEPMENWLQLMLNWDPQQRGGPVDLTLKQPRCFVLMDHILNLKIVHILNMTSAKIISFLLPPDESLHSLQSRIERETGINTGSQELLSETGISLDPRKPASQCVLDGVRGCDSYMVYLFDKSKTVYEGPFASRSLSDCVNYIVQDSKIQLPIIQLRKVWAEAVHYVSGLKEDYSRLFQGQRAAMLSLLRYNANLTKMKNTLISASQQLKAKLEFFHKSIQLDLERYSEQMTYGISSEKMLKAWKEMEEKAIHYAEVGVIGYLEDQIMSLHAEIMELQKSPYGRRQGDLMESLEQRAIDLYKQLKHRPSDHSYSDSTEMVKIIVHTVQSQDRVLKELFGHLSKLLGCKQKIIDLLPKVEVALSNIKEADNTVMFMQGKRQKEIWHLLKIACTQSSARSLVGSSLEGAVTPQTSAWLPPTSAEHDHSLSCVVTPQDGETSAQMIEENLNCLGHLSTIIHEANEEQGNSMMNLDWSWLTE

Sequence of PIKFYVE (Q9Y2I7 2-2098): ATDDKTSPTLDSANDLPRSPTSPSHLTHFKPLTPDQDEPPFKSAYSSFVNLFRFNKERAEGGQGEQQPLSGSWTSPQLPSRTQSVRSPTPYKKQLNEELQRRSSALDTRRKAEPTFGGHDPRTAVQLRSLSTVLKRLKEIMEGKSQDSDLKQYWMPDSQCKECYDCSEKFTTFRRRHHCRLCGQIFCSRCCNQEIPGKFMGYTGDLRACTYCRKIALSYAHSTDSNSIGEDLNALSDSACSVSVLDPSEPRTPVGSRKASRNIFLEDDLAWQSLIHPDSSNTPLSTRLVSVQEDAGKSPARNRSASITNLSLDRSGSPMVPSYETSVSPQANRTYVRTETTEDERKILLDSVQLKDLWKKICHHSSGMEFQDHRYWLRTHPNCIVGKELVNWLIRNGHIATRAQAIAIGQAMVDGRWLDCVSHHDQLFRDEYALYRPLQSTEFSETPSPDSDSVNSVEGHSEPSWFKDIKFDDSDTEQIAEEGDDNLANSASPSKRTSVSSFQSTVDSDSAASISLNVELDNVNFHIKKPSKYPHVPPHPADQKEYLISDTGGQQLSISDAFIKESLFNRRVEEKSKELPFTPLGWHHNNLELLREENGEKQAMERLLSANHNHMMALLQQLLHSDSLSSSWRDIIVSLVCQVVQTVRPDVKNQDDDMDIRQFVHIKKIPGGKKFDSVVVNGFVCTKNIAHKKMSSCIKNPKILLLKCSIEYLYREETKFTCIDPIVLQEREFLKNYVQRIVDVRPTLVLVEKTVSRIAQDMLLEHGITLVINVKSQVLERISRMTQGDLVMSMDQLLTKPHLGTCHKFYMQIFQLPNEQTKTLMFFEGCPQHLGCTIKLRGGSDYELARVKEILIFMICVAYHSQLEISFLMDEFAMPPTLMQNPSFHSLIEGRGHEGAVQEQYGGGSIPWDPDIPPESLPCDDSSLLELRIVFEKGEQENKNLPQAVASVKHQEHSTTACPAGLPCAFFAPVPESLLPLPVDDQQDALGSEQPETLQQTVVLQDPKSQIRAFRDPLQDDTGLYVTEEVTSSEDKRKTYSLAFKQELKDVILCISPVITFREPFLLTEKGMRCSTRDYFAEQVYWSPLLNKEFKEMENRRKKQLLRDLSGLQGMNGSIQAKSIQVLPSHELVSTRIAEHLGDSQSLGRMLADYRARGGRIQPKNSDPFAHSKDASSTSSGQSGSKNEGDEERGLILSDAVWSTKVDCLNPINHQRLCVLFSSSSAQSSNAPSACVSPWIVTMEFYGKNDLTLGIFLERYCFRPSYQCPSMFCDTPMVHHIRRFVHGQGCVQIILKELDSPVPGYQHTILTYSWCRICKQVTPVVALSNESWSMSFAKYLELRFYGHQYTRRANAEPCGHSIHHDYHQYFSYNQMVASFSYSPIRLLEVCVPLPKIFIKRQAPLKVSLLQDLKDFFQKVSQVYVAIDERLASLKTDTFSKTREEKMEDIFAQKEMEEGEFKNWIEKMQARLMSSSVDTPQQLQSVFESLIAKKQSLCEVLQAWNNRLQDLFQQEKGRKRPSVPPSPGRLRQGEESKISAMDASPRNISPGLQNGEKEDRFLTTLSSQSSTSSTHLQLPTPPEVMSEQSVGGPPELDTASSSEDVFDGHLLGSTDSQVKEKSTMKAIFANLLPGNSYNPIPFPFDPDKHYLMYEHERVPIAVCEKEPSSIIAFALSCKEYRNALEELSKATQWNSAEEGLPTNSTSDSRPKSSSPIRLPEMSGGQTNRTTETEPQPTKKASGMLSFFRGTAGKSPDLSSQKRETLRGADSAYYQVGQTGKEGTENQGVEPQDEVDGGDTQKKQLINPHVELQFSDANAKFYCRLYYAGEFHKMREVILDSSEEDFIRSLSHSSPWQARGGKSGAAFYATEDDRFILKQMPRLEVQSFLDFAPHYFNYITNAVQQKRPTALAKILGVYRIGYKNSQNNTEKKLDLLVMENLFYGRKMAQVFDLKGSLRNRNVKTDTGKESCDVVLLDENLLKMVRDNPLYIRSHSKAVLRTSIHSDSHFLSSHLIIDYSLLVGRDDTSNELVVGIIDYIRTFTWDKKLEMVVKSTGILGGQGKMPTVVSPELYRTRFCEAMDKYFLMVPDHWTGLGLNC

IC50 (PIP4K2C): ~1000 nM
inhibition at 1 µM (PIKFYVE): 97%
inhibition at 1 µM (CHUK/IKKA): 39%
SMILES: C(=NNc1nc(Nc2ccccc2)nc(N2CCOCC2)n1)c1c[nH]c2ccccc12 [WX8, 1H-indole-3-carbaldehyde (4-anilino-6-[4-morpholinyl]-1,3,5-triazin-2-yl)hydrazone]
